Laboratory results as given in patent US6572860B1, “Immunogenic conjugated polypeptide for treatment of herpes simplex virus” (CEL-SCI Corporation, priority 1997, dated 2003).
“Also recorded” adds a separate entry of the source.

Columns and labels:
HSV-1 [1] = experiment: Intraperitoneal challenge of vaccinated mice with an LD50 of HSV-1: symptoms and survival; type: in vivo; conditions: Balb/c mice 4 wk old, n=6, vaccinated twice, challenged with an LD50 of HSV-1; for disease symptoms (symptom score 1-5): FIG. 4; for survival / death: FIG. 5
Protocol: Similar tests as described above were carried out. Balb/c mice (4 wk old) (n=6) were unvaccinated (NO VAC) or vaccinated and revaccinated two weeks later with the H1 peptide or the indicated conjugated polypeptide. The mice were then challenged two weeks later with an LD50 of HSV-1. Symptoms were scored daily as:
(§1) 1. non-specific mild symptoms
(§2) 2. mild swelling of the abdomen
(§3) 3. significant swelling of the abdomen and malaise
The results are shown in FIG. 4 for symptoms, in FIG. 5 for survival and in FIG. 6 for DTH.

HSV-1 [2] = experiment: Intraperitoneal HSV-1 challenge of vaccinated mice, sub-lethal (<LD50) challenge: symptoms and survival; type: in vivo, Balb/c mice; conditions: for Symptomatic conditions after viral challenge (symptom score 1-5) / survival after viral challenge: Balb/c mice; for Symptomatic conditions after viral challenge (symptom score 1-5): 2 immunizations of 33 nmoles in Novasome adjuvant, i.p. sub-lethal HSV-1 challenge two weeks later; for survival after viral challenge: sub-lethal i.p. HSV-1 challenge, FIG. 2
Text: An intraperitoneal challenge model using mice test animal was selected although the predominant presentation of HSV disease is not intraperitoneal since a reproducible course of disease occurs following viral challenge; since the viral challenge dose can be well defined and readily delivered by intraperitoneal injection since the symptoms are readily detected and the course of disease can be qualitatively evaluated; and since the relevant parameter of survival may be readily evaluated. Immune function studies may also be conducted in vitro to further characterize the responses to the test vaccines.
In a series of experiments, groups (12 per group) of 3 week old Balb/c female mice (Taconic Farms, Germantown, N.Y.) are immunized and test bled according to the following schedule. Schedule A: immunizations on day 0 and day 14, and two weeks later nine mice of each group are challenged moderately with a lethal dose (<LD50) of HSV (H129 clinical strain) administered intraperitoneally. In this regard, young Balb/c mice show a defined course of disease which progresses from abdominal swelling, lethargy, paraplegia, to death within 1 to 2 weeks. Therefore, the effectiveness of the vaccinations may be readily determined.
(§4) Each immunization consisted of 33 nmoles of conjugated polypeptide or non-conjugated antigenic peptide H1 (equivalent to 100 μg of the JH1 vaccine). The peptide was mixed with the Novasome liposomal adjuvant (50% v/v). The mice were immunized twice with a two week interval between inoculations. After an additional two weeks, most of the mice received an intraperitoneal challenge with the EKN clinical strain of HSV-1. The mice were evaluated daily for symptoms. […] Blood was obtained from selected mice for ELISA studies prior to immunization and prior to virus challenge. The results are shown in FIG. 1 for symptom (on a daily basis) and in FIG. 2 for survival following vaccination and sub-lethal challenge.
In FIG. 1 symptoms were scored daily as:
as §1, §2, §3

[3] = tested on: ultraviolet inactivated HSV; experiment: Delayed type hypersensitivity (DTH), ear pinna swelling at 48 hours (FIG. 3); type: in vivo, Balb/c mice; conditions: vaccinated unchallenged mice, 4 weeks after last immunization, 48 hours after injection of UV inactivated HSV
Protocol: as §4
DTH response was evaluated 4 weeks after the last immunization for the vaccinated mice and three unvaccinated HSV challenged mice which had recovered from disease (C). Swelling of the right ear pinna was measured at 48 hours following injection of ultraviolet inactivated HSV and compared to the left ear pinna which had been injected with buffer.
In another series of parallel experiments Balb/c female mice (n=9) were vaccinated with the H1 peptide or the JH1, GH1 or LH1 conjugated polypeptides according to the same protocol as for the HSV-1 challenge experiment described above.

[4] = tested on: ultraviolet inactivated HSV; experiment: Delayed type hypersensitivity (DTH), ear pinna swelling at 24, 48 and 96 hours (FIG. 6); type: in vivo, Balb/c mice; conditions: 4 weeks after last immunization, 24, 48 and 96 hours after injection of UV inactivated HSV
Protocol: DTH response was evaluated 4 weeks after the last immunization for the vaccinated mice and three unvaccinated HSV challenged mice which had recovered from disease (Ctrl)
(§5) The protocol used in this experiment differed slightly from that of FIG. 3. Swelling in the right ear pinna was measured by micrometer prior to and at 24, 48 and 96 hours following injection of ultraviolet inactivated HSV and compared to the left ear pinna which had been injected with an uninfected Vero cell extract.

peptide H1 = experiment: ELISA of antibody responses to peptide H1; type: in vivo; conditions: immunized Balb/c mice
Protocol: as §4

B1 peptide = experiment: ELISA of serum antibody response, B1 peptide as antigen; type: in vivo, C57BI6 mice
Protocol: (§6) The antibody responses of vaccinated and unchallenged mice, vaccinated and challenged mice and unvaccinated and challenged mice were measured by ELISA assay. Serum was obtained 7 weeks after the initial immunization or 2 weeks after the virus challenge. B1 peptide or infected cell extracts were bound to the ELISA plate as antigen. Results are shown in Table 3 and were taken from pooled serum taken from 2 or 3 mice. The results were corrected for non-specific responses by subtracting the absorbance obtained towards an unrelated antigen.

HSV-1 [5] = experiment: HSV-1 challenge of mice vaccinated with B1 peptides: survival (FIG. 7); type: in vivo; conditions: C57BI6 mice; for survival (mice surviving of 9): after day 8
Text: In order to further establish the effectiveness of conjugated peptides according to this invention as effective vaccines for treatment of herpes simplex virus, the HSV epitope B1, which is a T cell epitope (aa 498-505, SSIEFARL) of glycoprotein B found in both HSV-1 or HSV-2 (see Hanke, et al, J. Virol. 65:1177-86; and Bonneau, et al, Virology 195:62-70) was selected and evaluated with either peptide J or peptide G or peptide L as described above. Namely, the conjugated peptides GB1, JB1 and LB1, as described in Table 1 above, were tested under the same conditions as previously described except that in place of the Balb/c mice, C57BI6 mice were vaccinated with the B1 conjugated peptides or non-conjugated B1 peptide (SEQ ID NO:4). The mice immunized with the B1 peptide or with the conjugated peptide LB1 were not protected from HSV-1 challenge (0 of 9 or 1 of 9 survival, respectively, after day 8) and, in fact the B1 and LB1 immunized mice fared worse than the control (unvaccinated) mice (2 of 9 survival after day 8).

[6] = tested on: ultraviolet inactivated HSV; experiment: DTH tests on unchallenged mice immunized with B1 peptides; type: in vivo; conditions: 3 unchallenged immunized C57BI6 mice
Protocol: as §5

infected cell extracts = experiment: ELISA of serum antibody response, infected cell extracts as antigen (antivirus response); type: in vivo, C57BI6 mice; conditions: vaccinated and HSV-1 challenged mice, pooled serum, 2 weeks after virus challenge
Protocol: as §6

[7] = 9 challenged mice per group, sub-lethal HSV-1 challenge, FIG. 1
[8] = vaccinated and unchallenged mice, pooled serum of 2 or 3 mice, 7 weeks after initial immunization

| Substance | disease symptoms (symptom score 1-5) (HSV-1 [1]) | survival / death (HSV-1 [1]) | number of mice showing significant symptoms (HSV-1 [2]; [7]) | number of mice that died (HSV-1 [2]; [7]) | Symptomatic conditions after viral challenge (symptom score 1-5) (HSV-1 [2]; FIG. 1) | survival after viral challenge (HSV-1 [2]) | DTH response (redness and swelling of ear pinna) [3] | DTH response (redness and swelling of ear pinna) [4] | Antibody responses to the antigenic peptide by ELISA (peptide H1) | B1 PEPTIDE RESPONSE (ELISA absorbance, corrected for non-specific response) (B1 peptide; [8]) | protection from HSV-1 challenge (HSV-1 [5]) | survival (mice surviving of 9) (HSV-1 [5]) | DTH response [6] | B1 PEPTIDE RESPONSE (ELISA absorbance, corrected for non-specific response) (B1 peptide; vaccinated and HSV-1 challenged mice, pooled serum, 2 weeks after virus challenge) | survival (HSV-1 [5]) | ANTIVIRUS RESPONSE (ELISA absorbance, corrected for non-specific response) (infected cell extracts) |
| --- | --- | --- | --- | --- | --- | --- | --- | --- | --- | --- | --- | --- | --- | --- | --- | --- |
| DLL KN GER IEK VEG GGL YRT FAG NPR A (SEQ ID NO:10) (DLLKNGERIEKVEGGGLYRTFAGNPRA) [JH1, conjugated polypeptide of Peptide J (β-2 microglobulin), GGG spacer and peptide H1 of ICP27] | protected from disease symptoms | protected from disease symptoms and death | two | one | protected from disease | maximal survival | DTH was observed | DTH was observed on each day |  |  |  |  |  |  |  |  |
| NGQ EEK AGV VST GLI GGG LYR TFA GNP RA (SEQ ID NO:12) (NGQEEKAGVVSTGLIGGGLYRTFAGNPRA) [GH1, conjugated polypeptide of Peptide G, GGG spacer and peptide H1] | severe symptoms | death |  |  | more severe symptoms throughout the course of infection and death; also recorded: seemed to exacerbate the disease symptoms | seemed to exacerbate the disease symptoms | not | Some swelling but no redness was observed for some but not all of the mice |  |  |  |  |  |  |  |  |
| LYRTFAGNPRA (SEQ ID NO:1) [H1, non-conjugated antigenic peptide, amino acid residues 322 to 332 of the ICP27 protein of HSV-1, reference compound] | severe symptoms | death |  |  | more severe symptoms throughout the course of infection and death; also recorded: seemed to exacerbate the disease symptoms | seemed to exacerbate the disease symptoms | not | Some swelling but no redness was observed for some but not all of the mice | undetectable |  |  |  |  |  |  |  |
| SSIEFARL (SEQ ID NO:4) [B1, non-conjugated antigenic peptide, amino acid residues 498 to 505 from glycoprotein B of HSV-1, reference compound] |  |  |  |  |  |  |  |  |  | 0.031 | not protected | 0 of 9 | did not exhibit a DTH response |  |  |  |
| LHG PEI LDV PST GGG SSI EFA RL (SEQ ID NO:18) (LHGPEILDVPSTGGGSSIEFARL) [LB1, conjugated polypeptide of Peptide L, GGG spacer and peptide B1] |  |  |  |  |  |  |  |  |  | 0.031 | not protected | 1 of 9 |  |  |  |  |
| NGQ EEK AGV VST GLI GGG SSI EFA RL (SEQ ID NO:17) (NGQEEKAGVVSTGLIGGGSSIEFARL) [GB1, conjugated polypeptide of Peptide G, GGG spacer and peptide B1] |  |  |  |  |  |  |  |  |  | 0.035 | partial protection | 5 of 9 | did not exhibit a DTH response | 0.017 | 55.5% |  |
| LHG PEI LDV PST GGG LYR TFA GNP RA (SEQ ID NO:13) (LHGPEILDVPSTGGGLYRTFAGNPRA) [LH1, conjugated polypeptide of Peptide L, GGG spacer and peptide H1] | severe symptoms | death |  |  | more severe symptoms throughout the course of infection and death; also recorded: seemed to exacerbate the disease symptoms | seemed to exacerbate the disease symptoms | not | Some swelling but no redness was observed for some but not all of the mice |  |  |  |  |  |  |  |  |
| DLL KNG ERI EKV EGG GSS IEF ARL (SEQ ID NO:16) (DLLKNGERIEKVEGGGSSGSSIEFARL) [JB1, conjugated polypeptide of Peptide J, GGG spacer and peptide B1 of glycoprotein B] |  |  |  |  |  |  |  |  |  | 0.025 | partial protection | 4 of 9 | exhibited a DTH response |  | 44.4% | 0.445 |
